{"source": "the NIST ThermoML archive (doi:10.1016/j.jct.2010.03.009)", "assay": "mn = molality of the nth substance listed, in mol/kg", "conditions": "101 kPa, Liquid; for viscosity: Capillary tube (Ostwald / Ubbelohde) method; for mass density: Vibrating tube method", "note": "± gives the expanded uncertainty stated by the source.", "data": [{"smiles": "NC(=O)c1ccccc1O", "note": "[2-hydroxybenzamide] + C[S+](C)[O-]", "values": [{"measurement": "viscosity", "setting": "293.15 K, m1 = 0.0069", "value": "2.276 ± 0.014", "unit": "mPa·s"}, {"measurement": "viscosity", "setting": "293.15 K, m1 = 0.0091", "value": "2.279 ± 0.014", "unit": "mPa·s"}, {"measurement": "viscosity", "setting": "293.15 K, m1 = 0.0114", "value": "2.282 ± 0.014", "unit": "mPa·s"}, {"measurement": "viscosity", "setting": "293.15 K, m1 = 0.0137", "value": "2.285 ± 0.014", "unit": "mPa·s"}, {"measurement": "viscosity", "setting": "293.15 K, m1 = 0.016", "value": "2.287 ± 0.014", "unit": "mPa·s"}, {"measurement": "viscosity", "setting": "293.15 K, m1 = 0.0183", "value": "2.289 ± 0.014", "unit": "mPa·s"}, {"measurement": "viscosity", "setting": "293.15 K, m1 = 0.0229", "value": "2.294 ± 0.014", "unit": "mPa·s"}, {"measurement": "mass density", "setting": "293.15 K, m1 = 0.0069", "value": "1100.6 ± 0.094", "unit": "kg/m3"}, {"measurement": "mass density", "setting": "293.15 K, m1 = 0.0091", "value": "1100.66 ± 0.094", "unit": "kg/m3"}, {"measurement": "mass density", "setting": "293.15 K, m1 = 0.0114", "value": "1100.72 ± 0.093", "unit": "kg/m3"}, {"measurement": "mass density", "setting": "293.15 K, m1 = 0.0137", "value": "1100.78 ± 0.093", "unit": "kg/m3"}, {"measurement": "mass density", "setting": "293.15 K, m1 = 0.016", "value": "1100.83 ± 0.091", "unit": "kg/m3"}, {"measurement": "mass density", "setting": "293.15 K, m1 = 0.0183", "value": "1100.86 ± 0.091", "unit": "kg/m3"}, {"measurement": "mass density", "setting": "293.15 K, m1 = 0.0229", "value": "1100.92 ± 0.091", "unit": "kg/m3"}, {"measurement": "viscosity", "setting": "298.15 K, m1 = 0.0069", "value": "2.034 ± 0.013", "unit": "mPa·s"}, {"measurement": "viscosity", "setting": "298.15 K, m1 = 0.0091", "value": "2.038 ± 0.013", "unit": "mPa·s"}, {"measurement": "viscosity", "setting": "298.15 K, m1 = 0.0114", "value": "2.042 ± 0.013", "unit": "mPa·s"}, {"measurement": "viscosity", "setting": "298.15 K, m1 = 0.0137", "value": "2.045 ± 0.013", "unit": "mPa·s"}, {"measurement": "viscosity", "setting": "298.15 K, m1 = 0.016", "value": "2.048 ± 0.013", "unit": "mPa·s"}, {"measurement": "viscosity", "setting": "298.15 K, m1 = 0.0183", "value": "2.051 ± 0.013", "unit": "mPa·s"}, {"measurement": "viscosity", "setting": "298.15 K, m1 = 0.0229", "value": "2.056 ± 0.013", "unit": "mPa·s"}, {"measurement": "mass density", "setting": "298.15 K, m1 = 0.0069", "value": "1095.59 ± 0.092", "unit": "kg/m3"}, {"measurement": "mass density", "setting": "298.15 K, m1 = 0.0091", "value": "1095.64 ± 0.09", "unit": "kg/m3"}, {"measurement": "mass density", "setting": "298.15 K, m1 = 0.0114", "value": "1095.68 ± 0.089", "unit": "kg/m3"}, {"measurement": "mass density", "setting": "298.15 K, m1 = 0.0137", "value": "1095.71 ± 0.089", "unit": "kg/m3"}, {"measurement": "mass density", "setting": "298.15 K, m1 = 0.016", "value": "1095.76 ± 0.089", "unit": "kg/m3"}, {"measurement": "mass density", "setting": "298.15 K, m1 = 0.0183", "value": "1095.79 ± 0.088", "unit": "kg/m3"}, {"measurement": "mass density", "setting": "298.15 K, m1 = 0.0229", "value": "1095.8 ± 0.088", "unit": "kg/m3"}, {"measurement": "viscosity", "setting": "303.15 K, m1 = 0.0069", "value": "1.881 ± 0.012", "unit": "mPa·s"}, {"measurement": "viscosity", "setting": "303.15 K, m1 = 0.0091", "value": "1.884 ± 0.012", "unit": "mPa·s"}, {"measurement": "viscosity", "setting": "303.15 K, m1 = 0.0114", "value": "1.887 ± 0.012", "unit": "mPa·s"}, {"measurement": "viscosity", "setting": "303.15 K, m1 = 0.0137", "value": "1.889 ± 0.012", "unit": "mPa·s"}, {"measurement": "viscosity", "setting": "303.15 K, m1 = 0.016", "value": "1.892 ± 0.012", "unit": "mPa·s"}, {"measurement": "viscosity", "setting": "303.15 K, m1 = 0.0183", "value": "1.894 ± 0.012", "unit": "mPa·s"}, {"measurement": "viscosity", "setting": "303.15 K, m1 = 0.0229", "value": "1.899 ± 0.012", "unit": "mPa·s"}, {"measurement": "mass density", "setting": "303.15 K, m1 = 0.0069", "value": "1090.56 ± 0.088", "unit": "kg/m3"}, {"measurement": "mass density", "setting": "303.15 K, m1 = 0.0091", "value": "1090.6 ± 0.088", "unit": "kg/m3"}, {"measurement": "mass density", "setting": "303.15 K, m1 = 0.0114", "value": "1090.63 ± 0.087", "unit": "kg/m3"}, {"measurement": "mass density", "setting": "303.15 K, m1 = 0.0137", "value": "1090.66 ± 0.087", "unit": "kg/m3"}, {"measurement": "mass density", "setting": "303.15 K, m1 = 0.016", "value": "1090.69 ± 0.086", "unit": "kg/m3"}, {"measurement": "mass density", "setting": "303.15 K, m1 = 0.0183", "value": "1090.7 ± 0.086", "unit": "kg/m3"}, {"measurement": "mass density", "setting": "303.15 K, m1 = 0.0229", "value": "1090.73 ± 0.087", "unit": "kg/m3"}, {"measurement": "viscosity", "setting": "308.15 K, m1 = 0.0069", "value": "1.732 ± 0.011", "unit": "mPa·s"}, {"measurement": "viscosity", "setting": "308.15 K, m1 = 0.0091", "value": "1.737 ± 0.011", "unit": "mPa·s"}, {"measurement": "viscosity", "setting": "308.15 K, m1 = 0.0114", "value": "1.742 ± 0.011", "unit": "mPa·s"}, {"measurement": "viscosity", "setting": "308.15 K, m1 = 0.0137", "value": "1.747 ± 0.011", "unit": "mPa·s"}, {"measurement": "viscosity", "setting": "308.15 K, m1 = 0.016", "value": "1.752 ± 0.011", "unit": "mPa·s"}, {"measurement": "viscosity", "setting": "308.15 K, m1 = 0.0183", "value": "1.756 ± 0.011", "unit": "mPa·s"}, {"measurement": "viscosity", "setting": "308.15 K, m1 = 0.0229", "value": "1.763 ± 0.011", "unit": "mPa·s"}, {"measurement": "mass density", "setting": "308.15 K, m1 = 0.0069", "value": "1085.51 ± 0.086", "unit": "kg/m3"}, {"measurement": "mass density", "setting": "308.15 K, m1 = 0.0091", "value": "1085.56 ± 0.086", "unit": "kg/m3"}, {"measurement": "mass density", "setting": "308.15 K, m1 = 0.0114", "value": "1085.59 ± 0.086", "unit": "kg/m3"}, {"measurement": "mass density", "setting": "308.15 K, m1 = 0.0137", "value": "1085.63 ± 0.086", "unit": "kg/m3"}, {"measurement": "mass density", "setting": "308.15 K, m1 = 0.016", "value": "1085.66 ± 0.085", "unit": "kg/m3"}, {"measurement": "mass density", "setting": "308.15 K, m1 = 0.0183", "value": "1085.69 ± 0.085", "unit": "kg/m3"}, {"measurement": "mass density", "setting": "308.15 K, m1 = 0.0229", "value": "1085.72 ± 0.084", "unit": "kg/m3"}, {"measurement": "viscosity", "setting": "310.15 K, m1 = 0.0069", "value": "1.644 ± 0.011", "unit": "mPa·s"}, {"measurement": "viscosity", "setting": "310.15 K, m1 = 0.0091", "value": "1.645 ± 0.011", "unit": "mPa·s"}, {"measurement": "viscosity", "setting": "310.15 K, m1 = 0.0114", "value": "1.646 ± 0.011", "unit": "mPa·s"}, {"measurement": "viscosity", "setting": "310.15 K, m1 = 0.0137", "value": "1.647 ± 0.011", "unit": "mPa·s"}, {"measurement": "viscosity", "setting": "310.15 K, m1 = 0.016", "value": "1.647 ± 0.011", "unit": "mPa·s"}, {"measurement": "viscosity", "setting": "310.15 K, m1 = 0.0183", "value": "1.648 ± 0.011", "unit": "mPa·s"}, {"measurement": "viscosity", "setting": "310.15 K, m1 = 0.0229", "value": "1.649 ± 0.011", "unit": "mPa·s"}, {"measurement": "mass density", "setting": "310.15 K, m1 = 0.0069", "value": "1083.5 ± 0.086", "unit": "kg/m3"}, {"measurement": "mass density", "setting": "310.15 K, m1 = 0.0091", "value": "1083.55 ± 0.085", "unit": "kg/m3"}, {"measurement": "mass density", "setting": "310.15 K, m1 = 0.0114", "value": "1083.58 ± 0.084", "unit": "kg/m3"}, {"measurement": "mass density", "setting": "310.15 K, m1 = 0.0137", "value": "1083.6 ± 0.084", "unit": "kg/m3"}, {"measurement": "mass density", "setting": "310.15 K, m1 = 0.016", "value": "1083.62 ± 0.084", "unit": "kg/m3"}, {"measurement": "mass density", "setting": "310.15 K, m1 = 0.0183", "value": "1083.65 ± 0.084", "unit": "kg/m3"}, {"measurement": "mass density", "setting": "310.15 K, m1 = 0.0229", "value": "1083.66 ± 0.084", "unit": "kg/m3"}, {"measurement": "viscosity", "setting": "313.15 K, m1 = 0.0069", "value": "1.563 ± 0.01", "unit": "mPa·s"}, {"measurement": "viscosity", "setting": "313.15 K, m1 = 0.0091", "value": "1.564 ± 0.01", "unit": "mPa·s"}, {"measurement": "viscosity", "setting": "313.15 K, m1 = 0.0114", "value": "1.565 ± 0.01", "unit": "mPa·s"}, {"measurement": "viscosity", "setting": "313.15 K, m1 = 0.0137", "value": "1.566 ± 0.01", "unit": "mPa·s"}, {"measurement": "viscosity", "setting": "313.15 K, m1 = 0.016", "value": "1.567 ± 0.01", "unit": "mPa·s"}, {"measurement": "viscosity", "setting": "313.15 K, m1 = 0.0183", "value": "1.567 ± 0.01", "unit": "mPa·s"}, {"measurement": "viscosity", "setting": "313.15 K, m1 = 0.0229", "value": "1.569 ± 0.01", "unit": "mPa·s"}, {"measurement": "mass density", "setting": "313.15 K, m1 = 0.0069", "value": "1080.47 ± 0.084", "unit": "kg/m3"}, {"measurement": "mass density", "setting": "313.15 K, m1 = 0.0091", "value": "1080.52 ± 0.084", "unit": "kg/m3"}, {"measurement": "mass density", "setting": "313.15 K, m1 = 0.0114", "value": "1080.55 ± 0.083", "unit": "kg/m3"}, {"measurement": "mass density", "setting": "313.15 K, m1 = 0.0137", "value": "1080.58 ± 0.083", "unit": "kg/m3"}, {"measurement": "mass density", "setting": "313.15 K, m1 = 0.016", "value": "1080.6 ± 0.083", "unit": "kg/m3"}, {"measurement": "mass density", "setting": "313.15 K, m1 = 0.0183", "value": "1080.62 ± 0.083", "unit": "kg/m3"}, {"measurement": "mass density", "setting": "313.15 K, m1 = 0.0229", "value": "1080.64 ± 0.082", "unit": "kg/m3"}]}]}
